According to US5834506A, “Dihydropyrones with improved antiviral activity” (Warner-Lambert Company, priority 1997, dated 1998):
pEC50, pIC50: −log10 of the molar value. Where a name gives a salt, the structure may show the parent alone.

Assays:
[1] = target: T1, HIV-1 protease (Human immunodeficiency virus type 1 group M subtype B, UniProt P04585); test: biochemical; conditions: 6.0 nM HIV-1 protease, 40 μM substrate III, 37° C., 5 minutes; read-out: Inhib of HIV-Protease IC50
T1 construct: Recombinant HIV-1 protease (>96% purity); purchased Bachem Bioscience Inc. (King of Prussia, PA)
Source text: The testing of specific 5,6-dihydropyrones as inhibitors of the HIV aspartyl protease, based on the study of the hydrolysis of an undecapeptide enzyme substrate, and the testing of the 5,6-dihydropyrones as inhibitors of viral growth and infectivity, based on the study of infection of H9 cell lines by the HIV-1iiib strain, are also disclosed. […] The methods employed follow the procedures of Tummino, et al. (Archives of Biochemistry and Biophysics 1995, 316, 523).
(§1) The compounds of the present invention were evaluated for their in vitro inhibition of HIV-1 protease and for their antiviral efficacy in HIV infected lymphocytes.
Recombinant HIV-1 protease (>96% purity) and HIV protease substrate III (the undecapeptide H-His-Lys-Ala-Arg-Val-Leu-Nph-Glu-Ala-Nle-Ser-NH2,>97% purity) were purchased from Bachem Bioscience Inc. (King of Prussia, PA).
The methods employed follow the procedures of Tummino, et al. (Archives of Biochemistry and Biophysics 1995, 316, 523). […] (total volume, 100 μl). […] The final inhibitor concentrations used were 0 (0.1, 0.2, in some experiments), 0.5, 1, 2, 5, 10, 20, 50, and 100 μM. The solution was mixed, incubated for 5 minutes and the reaction quenched by addition of trifluoracetic acid, 2% final. The (leu-p-nitro-phe) bond of the substrate is cleaved by the enzyme and substrate and products separated by reverse-phase HPLC. Absorbance was measured at 220 nm, peak areas determined, and percentage conversion to product used to calculate percentage control (=[% conversion (+inhibitor)/% conversion (-inhibitor)]×100).

[2] = tested on: HIV in lymphocyte derived CEM cells; test: Cellular Infection Assay, antiviral efficacy in HIV infected CEM cells (XTT cytopathic procedure); assay type: cell-based; conditions: Human immunodeficiency virus 1, CCRF-CEM, CEM cells; for EC95: protecting the cells 95% relative to untreated control; for pEC50: reduces HIV cytopathic effects 50% relative to untreated control, read-out: Antiviral Efficacy EC50
Description: as §1
(§2) Compounds were tested in lymphocyte derived CEM cells using the XTT cytopathic procedures and were performed at Southern Research Institute (Buckheit, et. al. Antiviral Res. 1993, 21, 247; see also Weislow, et al. J Nat. Cancer Inst., 1989, 81, 577). Compound concentrations were 0.32, 1, 3.2, 10, 32 and 100 uM. The EC50 represents the concentration of agent which reduces HIV cytopathic effects 50% relative to untreated control. EC95 represents the concentration of agent protecting the cells 95% relative to untreated control. Cellular toxicity of the agents are estimated from the TC50 which represents the concentration of the agent which inhibits 50% of the viability of uninfected cells.

[3] = Cellular toxicity in uninfected CEM cells (TC50); assay type: cell-based; conditions: human, inhibits 50% of the viability of uninfected cells
Description: as §2

| Compound | pIC50 [1] | pEC50 [2] | EC95 [2] [µM] | CC50 [3] [µM] |
| --- | --- | --- | --- | --- |
| Cc1cc(SC2=C(O)CC(C)(CCc3ccc(O)cc3)OC2=O)c(C(C)(C)C)cc1NC(=O)c1ccc(C#N)cc1 (centres unmarked) [Example 68] | 7.25 | 4.80 | 30 | > 100 |
| Cc1cc(SC2=C(O)CC(CCc3cccc(O)c3)(C3CCCC3)OC2=O)c(C(C)(C)C)cc1CO (centres unmarked) [Example 39, 3-(2-tert-Butyl-4-hydroxymethyl-5-methyl-phenylsulfanyl)-6-cyclopentyl-4-hydroxy-6-[2-(3-hydroxy-phenyl)-ethyl]-5,6-dihydro-pyran-2-one] | 8.72 | > 6.52 | 0.6 | > 100 |
| Cc1cc(SC2=C(O)CC(C)(CCc3ccc(O)cc3)OC2=O)c(C(C)(C)C)cc1N (centres unmarked) [Example 11, 3-(4-Amino-2-tert-butyl-5-methyl-phenylsulfanyl)-4-hydroxy-6-[2-(4-hydroxy-phenyl)-ethyl]-6-methyl-5,6-dihydro-pyran-2-one monohydrochloride] | 7.89 | 5.43 | 9.1 | > 100 |
| Cc1cc(SC2=C(O)CC(C)(CCc3ccc(O)cc3)OC2=O)c(C(C)(C)C)cc1OS(=O)(=O)NC(C)(C)C (racemic) [Example 6, tert-Butyl-sulfamic acid 5-tert-Butyl-4-{4-hydroxy-6-[2-(4-hydroxy-phenyl)-ethyl]-6-methyl-2-oxo-5,6-dihydro-2H-pyran-3-ylsulfanyl}-2-methyl-phenyl ester, (+/-)] | 8.42 | 5.64 | 8.5 | 56 |
| Cc1cc(SC2=C(O)CC(C)(CCc3ccc(O)cc3)OC2=O)c(C(C)(C)C)cc1NS(=O)(=O)c1ccc(C#N)cc1 (centres unmarked) [Example 13, N-(5-tert-Butyl-4-{4-hydroxy-6-[2-(4-hydroxy-phenyl)-ethyl]-6-methyl-2-oxo-5,6-dihydro-2H-pyran-3-ylsulfanyl}-2-methyl-phenyl)-4-cyano-benzenesulfonamide] | 8.68 | 5.30 | 20 | > 100 |
| CCNS(=O)(=O)Oc1cc(C(C)(C)C)c(SC2=C(O)CC(CCc3ccc(O)c(OC)c3)(c3ccc(OCCO)cc3)OC2=O)cc1C (centres unmarked) [Example 48] | 8.62 | 5.16 | 26 | > 100 |
| Cc1cc(SC2=C(O)CC(CCc3ccc(N)cc3)(C(C)C)OC2=O)c(C(C)(C)C)cc1OS(=O)(=O)c1ccc(C#N)cc1 (centres unmarked) [Example 86] | 8.89 | 6.40 | 3.7 | 53 |
| COc1cc(CCC2(CCc3ccc(O)c(OC)c3)CC(O)=C(Sc3cc(C)c(OCCO)cc3C(C)(C)C)C(=O)O2)ccc1O [Example 23, 3-[2-tert-Butyl-4-(2-hydroxy-ethoxy)-5-methyl-phenylsulfanyl]-4-hydroxy-6,6-bis [2-(4-hydroxy-3-methoxy-phenyl)-ethyl]-5,6-dihydro-pyran-2-one] | 8.47 | 5.70 | 7.9 | 61 |
| Cc1cc(SC2=C(O)CC(CCc3cccc(O)c3)(CCc3cccc(O)c3)OC2=O)c(C(C)(C)C)cc1OS(=O)(=O)N(C)C [Example 22, Dimethyl-sulfamic acid 5-tert-butyl-4-{4-hydroxy-6,6-bis-[2-(3-hydroxy-phenyl)-ethyl]-2-oxo-5,6-dihydro-2H-pyran-3-yisulfanyl}-2-methyl-phenyl ester] | 8.05 | 5.64 | 8.3 | 66 |
| Cc1cc(SC2=C(O)CC(CCc3ccc(O)cc3)(CCc3ccc(O)cc3)OC2=O)c(C(C)(C)C)cc1OS(=O)(=O)N1CCN(C)CC1 [Example 30, 4-Methyl-piperazine-1-sulfonic acid 5-tert-butyl-4-{4-hydroxy-6,6-bis-[2-(4-hydroxy-phenyl)-ethyl]-2-oxo-5,6-dihydro-2H-pyran-3-ylsulfanyl}-2-methyl-phenyl ester] | 8.26 | 5.30 | 9.3 | 66 |
| Cc1cc(SC2=C(O)CC(CCc3ccc(O)cc3)(C(C)C)OC2=O)c(C(C)(C)C)cc1N(C)C (centres unmarked) [Example 93] | 7.96 | 5.72 | 10 | 68 |
| Cc1cc(SC2=C(O)CC(CCc3ccc(O)cc3)(C(C)C)OC2=O)c(C(C)(C)C)cc1NS(=O)(=O)c1cccs1 (centres unmarked) [Example 77] | 8.06 | 5.74 | 5.2 | > 100 |
| Cc1cc(SC2=C(O)CC(CCc3ccc(O)cc3)(C3CCCCC3)OC2=O)c(C(C)(C)C)cc1O (centres unmarked) [Example 10, 3-(2-tert-Butyl-4-hydroxy-5-methyl-phenylsulfanyl)-6-cyclohexyl-4-hydroxy-6-[2-(4-hydroxy-phenyl)-ethyl]-5,6-dihydro-pyran-2-one] | 8.54 | 5.51 | 8.9 | 73 |
| CCc1cc(SC2=C(O)CC(CCc3ccc(O)cc3)(C(C)C)OC2=O)c(C(C)(C)C)cc1CO (centres unmarked) [Example 97] |  | 6.10 | 2.8 | > 100 |

More lines, main results first:

| pIC50 [1] | pEC50 [2] | Compound | EC95 [2] [µM] | CC50 [3] [µM] |
| --- | --- | --- | --- | --- |
| 8.39 | 6.05 | CCCCC1(CCc2ccc(O)cc2)CC(O)=C(Sc2cc(C)c(CO)cc2C(C)(C)C)C(=O)O1 (racemic) [Example 7, 6-Butyl-3-[2-tert-butyl-4-hydroxymethyl-5-methyl-phenylsulfanyl]-4-hydroxy-6-[2-(4-hydroxy-phenyl)-ethyl]-5,6-dihydro-pyran-2-one, (+/-)] | 3 | 63 |
| 8.41 | 5.72 | Cc1cc(SC2=C(O)C[C@@](CCc3ccccc3)(c3ccccc3)OC2=O)c(C(C)(C)C)cc1CO [Example 17, 3-(tert-Butyl4-hydroxymethyl-5-methyl-phenylsulfanyl)-4-hydroxy-6-phenethyl-6-phenyl-5,6-dihydro-pyran-2-one (S isomer)] | 7.5 | 60 |
| 8.51 | 5.43 | Cc1cc(SC2=C(O)CC(CCc3ccc(N)cc3)(c3ccccc3)OC2=O)c(C(C)(C)C)cc1CO (centres unmarked) [Example 15, 6-[2-(4-aminophenyl)ethyl]-3-(2-tert-butyl-4-hydroxymethyl-5-methyl-phenylsulfanyl)-4-hydroxy-6-phenyl-5,6-dihydro-pyran-2-one] | 9.4 | 94 |
| 8.20 | 5.46 | Cc1ccc(C(C)(C)C)c(SC2=C(O)CC(CCc3ccccc3)(c3ccc(OCCN4CCNCC4)cc3)OC2=O)c1 (centres unmarked) [Example 35, 3-(2-tert-Butyl-5-methyl-phenylsulfanyl)-4-hydroxy-6-phenethyl-6-[4-(2-piperazin-1-yl-ethoxy)-phenyl]-5,6-dihydro-pyran-2-one] | 8 | 84 |
| 6.82 | < 4.64 | Cc1ccc(C(C)(C)C)c(SC2=C(O)CC(CCc3ccccc3)(CCc3ccccc3)OC2=O)c1 [Ref A, 3-(2-tert-Butyl-5-methyl-phenylsulfanyl)-4-hydroxy-6,6-diphenethyl-5,6-dihydro-pyran-2-one, reference compound] |  | 23 |
|  | 6.48 | Cc1cc(CCC2(C(C)C)CC(O)=C(Sc3cc(C)c(CO)cc3C(C)(C)C)C(=O)O2)ccc1O (centres unmarked) [Example 100] | 0.9 | 84 |
|  | > 6.52 | Cc1cc(SC2=C(O)C[C@@](CCc3cccc(O)c3)(C3CCCC3)OC2=O)c(C(C)(C)C)cc1CO [Example 40] | < 0.3 | > 100 |
